A short description of data set [1]: Solubility of DTPA in neutral pH buffer, with and without zinc acetate. In kind it is physicochemical. How it is done:
As used herein, the terms “poorly absorbed drug,” “drug having low solubility,” and the like refer to a drug (in its neutral (i.e., uncharged) state) having a water solubility in neutral pH buffer of less than about 20 mg/ml. […] Thus, as used herein, DTPA (including DTPA and its salts, hydrates, solvates, complexes, etc.) is a poorly absorbed drug. […] In some embodiments, the present disclosure provides a pharmaceutical composition comprising a composition with improved aqueous solubility comprising a DTPA and zinc acetate composition of the present disclosure.

Data set [2] can be described thus: Single dose pharmacokinetic testing, DTPA in blood of male beagle dogs. In kind it is in vivo. The note with it: 72 hours post-dose. How it is done: The objective of this study was to evaluate the concentration of DTPA in blood following a single administration with either Zn-DTPA injectable solution or NanoDTPA capsules using male beagle dogs. Single dose pharmacokinetic (PK) testing groups of Zn-DTPA solution vs. NanoDTPA capsules included nine study groups used for the PK testing. Zn-DTPA solution was delivered intravenously (IV) and by mouth (per os, PO) and NanoDTPA capsules were administered PO. […] Three formulations of NanoDTPA capsules were tested to examine different formulations of NanoDTPA powder and different capsule sizes. The dose for each NanoDTPA capsule formulation was either two or six capsules and the calculated DTPA doses confirmed based on the amount of DTPA in the capsules and body weight.

A short description of data set [3]: Americium-241 decorporation in rats (tissue levels and excretion). In kind it is in vivo. The note with it: NanoDTPA capsules PO 60 mg/kg DTPA; for liver total Am-241 activity: rat liver, Zn-DTPA IV 15 mg/kg DTPA, per 200 ul homogenized tissue. How it is done: The decorporation and excretion properties in rodents of oral NanoDTPA capsules at 60 mg/kg DTPA according to the present disclosure was compared to IV Zn-DTPA solution at 15 mg/kg DTPA, which is the currently licensed product available to the public. The studies were designed to provide data that systemic Am-241 at a single low dose followed by oral NanoDTPA capsules can provide a sufficient radiation dose reduction as an efficacy endpoint. All DTPA dosing was initiated 24 hours post-exposure to isotope (Am-241) in this set of studies to simulate a realistic emergency response time following exposure. Two sets of measurements were made: (1) internal tissue levels at 2, 4, and 7 days vs. (2) daily excreted concentrations in urine and feces.
There was a general trend of tissue reduction in all groups over the 3, 5, and 8 day observation period. All data are expressed as total Am-241 activity in nCi per 200 ul blood, homogenized tissue, or output (urine and feces).

Data set [4] can be described thus: Americium-241 decorporation in dogs (urine, feces, tissue Am-241). The class given is in vivo, beagle dogs. The note with it: daily dosing days 1-14, Zn-DTPA IV 15 mg/kg, NanoDTPA 1, 2 or 6 capsules/day or 2 capsules twice/day. From the text: The objective of this study was to evaluate the dose-related efficacy of daily doses of NanoDTPA capsules in male and female beagle dogs intravenously (IV) administered a soluble citrate complex of americium-241 (Am-241). Twenty-four (24) male and female beagle dogs underwent a 14-day quarantine period for acclimation. Once released from quarantine, animals were weighed and randomized into study animals or spares. The average body weight of study animals was 8.6±0.9 kg (males 9.0±1.0 kg; females 8.2±0.7 kg). After randomization, animals were acclimated to metabolism cages for 24 hours prior to radionuclide administration. Animals received a single IV administration of 241Am(III)-citrate on Day 0. One day after radionuclide administration, one of four different doses of NanoDTPA capsules [1, 2, or 6-capsules/day or 2 capsules twice/day], IV Zn-DTPA [15 mg/kg] as a positive control, or IV saline as a placebo were administered. NanoDTPA capsules, IV Zn-DTPA, or IV saline was administered on study days 1-14. Urine and feces were collected daily. Animals were euthanized on day 21 and tissues collected. Urine, fecal, and tissue samples were analyzed for Am-241 content.

This is an account of results in US9040091B2 (priority 2012, dated 2015).

Structures are written as SMILES.

Consider `O=C(O)CN(CCN(CC(=O)O)CC(=O)O)CCN(CC(=O)O)CC(=O)O` [DTPA, diethylenetriaminepentaacetate], for which the entries for the “increase of the solubility of DTPA” value in data set [1] (about 10 mg/ml zinc acetate) and in data set [1] (about 20 mg/ml zinc acetate) were “about 35%” and “about 83%”, respectively. Further, the results for the “solubility of DTPA with zinc acetate” value in data set [1] (about 10 mg/ml zinc acetate) and in data set [1] (about 20 mg/ml zinc acetate) were “about 23.3 mg/ml” and “about 31.5 mg/ml”, respectively. Further, in data set [1] (neutral pH buffer, no additive), the “solubility in neutral pH buffer” value was less than 17.2 mg/ml.

`O=C([O-])CN(CCN(CC(=O)[O-])CC(=O)[O-])CCN(CC(=O)[O-])CC(=O)[O-].[Na+].[Na+].[Na+].[Zn+2]` [Zn-DTPA]: the percent bioavailability amounted to 12.26% in data set [2] (PO 6 mg DTPA/kg) and 12.67% in data set [2] (PO 60 mg DTPA/kg). Moreover, the “liver total Am-241 activity” value is 116.37+/−26.90 nCi in data set [3] (after 2 doses, dosing from 24 h post-exposure); 81.70+/−11.53 nCi in data set [3] (after 4 doses); 55.42+/−19.68 nCi in data set [3] (after 7 doses). In addition, in data set [3] (rats, Zn-DTPA IV 15 mg/kg), the “tissue Am-241 concentrations compared to control animals receiving no DTPA treatment” value is reported as “significantly lower”. Further, the “Am-241 activity excreted in the urine compared to the saline placebo” value in data set [4] is “approximately 9.4 times”.
